In one data set the target is T1, XIAP (Homo sapiens, UniProt P98170).
T1 construct: fused on or other part: GST tag at the N-terminus (pGEX4T vectors)
Kind of data set: Fluorescence polarization-based competition assay, XIAP. To be noted: FP assay, ki derived from IC50. Type of data set: binding. The essentials:
(§1)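 Competition of FITC-labelled probe (2 nM) binding to the BIR domain, protein set at 80% of maximal FP signal; 10-point compound dilutions in 50 mM HEPES pH 7.5, γ-globulin, 2 mM DTT, 1% DMSO, 1 h at room temperature in the dark. IC50 from sigmoidal fit; Ki derived from IC50.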

A further data set has as its target T2, c-IAP1 (Homo sapiens, UniProt Q13490).
T2 construct: GST (N); made in house; host or cells: E. coli DH5α
Kind of data set: Fluorescence polarization-based competition assay, c-IAP1. It counts as binding. To be noted: FP assay, ki derived from IC50. The essentials: as §1
(In fluorescence polarisation assays a small probe gives low polarisation when free and higher when bound to something large.)

For the next data set, the target named is T3, cIAP2 (Homo sapiens, UniProt Q13489).
T3 construct: GST (N); made in house; host or cells: E. coli DH5α
The data set can be described thus: Fluorescence polarization-based competition assay, cIAP2. To be noted: FP assay, ki derived from IC50. Type of data set: binding. The essentials: as §1

Data set [1] relates to Colorectal carcinoma HCT116 cells. The data set can be described thus: Cell death assay (MTT) in combination with HGS ETR1. It counts as cell-based. To be noted: with HGS ETR1 30 ng/ml, 72 hours, read-out: HCT116+ mapatubimap EC50. The essentials:
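HCT116 cells (2000/well, McCoy's 5a, 10% FBS) were treated 24 h after plating with compound plus the agonistic TRAIL receptor antibody mapatumumab (ETR1, 30 ng/ml) for 72 hours. Viability was read by MTT. EC50 was the concentration giving 50% survival relative to untreated controls.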

For another data set, the system named is MDA-MB-231 (CD) cells. The data set can be described thus: MDA-MB-231 compound + mapatubamab xenograft study. It counts as in vivo, nude mice. The note with it: 30 and 60 mg/kg, PO, QD in combination with mapatubamab (10 mg/kg, IV). The method, then:
Female, nude mice received 5×10^6 MDA-MB-231 (CD) cells subcutaneously in the right flank (0.1 mL volume) on day 0 of the experiment. When the average tumor size reached ˜100 mm^3, groups were formed using a balanced design based on tumor size, and dosing was initiated. Test compound 10 or 7 (see Table 1) (or corresponding vehicle alone) was given daily, and mapatubamab (or corresponding vehicle alone) was given twice weekly. Tumor size and body weight were measured twice weekly throughout the study.

A short description of data set [2]: Maximum Tolerated Dose (MTD) study. Type of data set: in vivo, CD-1 mice. To be noted: 350 mg/kg dose, PO twice weekly. The method, then:
Male, CD-1 mice (20-25 g on arrival, Charles River) were habituated to the animal facility for four days and then randomly assigned to treatment groups. Animals were dosed by oral gavage twice weekly, for a total of six treatments, with compounds 63, 58, 45, 10, 20, 40, and 66 at 15, 70, or 350 mg/kg in water, PO, or water alone (5 ml/kg, PO). Body weight and general health were monitored throughout the experiment. Twenty four hours after the last dose (day 19), animals were anesthetized with isoflurane, and blood was collected for serum biochemistry. Serum biochemical parameters were restricted to random glucose, urea, creatinine, total protein, albumin, globulin, A:G ratio, total bilirubin, AST, ALT, alkaline phosphatase, GGT and amylase. Once exsanguinated the animals underwent full necropsy and organ weights were recorded for brain, heart, liver, spleen, kidneys, stomach (empty) and intestine (empty, from stomach to cecum). Because some treatments were suppressing weight gain (see below), organ weights were normalized to brain weight, and then expressed as percent change from the vehicle treated control group.

T3 sequence (Q13489 236-349): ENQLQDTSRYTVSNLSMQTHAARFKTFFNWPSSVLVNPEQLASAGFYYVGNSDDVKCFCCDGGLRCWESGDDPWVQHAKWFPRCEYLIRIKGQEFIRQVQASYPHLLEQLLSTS
T1 sequence (P98170 246-497 limits assumed): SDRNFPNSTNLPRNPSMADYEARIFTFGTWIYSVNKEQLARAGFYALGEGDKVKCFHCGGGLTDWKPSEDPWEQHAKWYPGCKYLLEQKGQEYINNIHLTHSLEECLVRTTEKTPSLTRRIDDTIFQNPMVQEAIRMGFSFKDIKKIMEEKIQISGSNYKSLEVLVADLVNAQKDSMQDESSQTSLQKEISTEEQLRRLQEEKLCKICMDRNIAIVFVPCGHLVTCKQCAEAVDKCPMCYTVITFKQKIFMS
T2 sequence (Q13490 251-363): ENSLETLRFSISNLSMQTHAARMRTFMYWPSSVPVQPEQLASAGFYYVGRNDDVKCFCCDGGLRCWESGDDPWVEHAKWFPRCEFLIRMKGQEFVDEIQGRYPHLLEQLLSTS

For `CN[C@@H](C)C(=O)N[C@H](C(=O)N1CCC[C@H]1CN(CCc1ccc(F)cc1)C(=O)c1cn2cccnc2n1)C(C)(C)C` [Compound 10], the Ki on XIAP was less than 250 nM; on c-IAP1, less than 25 nM; at cIAP2, less than 25 nM. Further, the EC50 in data set [1] was less than 50 nM. In addition, in the data set on MDA-MB-231 (CD) cells, the “reduction of tumor volume as compared to control” value worked out at 50%.

For `CN[C@@H](C)C(=O)N[C@H](C(=O)N1CCC[C@H]1CN(CCc1ccc(F)cc1)C(=O)c1cn(C)cn1)C(C)(C)C` [Compound 40], the Ki on XIAP is less than 250 nM; on c-IAP1 it was less than 25 nM; at cIAP2, less than 25 nM. Besides, in data set [1], the EC50 was less than 50 nM. Moreover, the body weight change entry in data set [2] is listed as “slight weight loss”.

For the compound `CN[C@@H](C)C(=O)N[C@H](C(=O)N1CCC[C@H]1CN(CCc1ccccc1)C(=O)c1cn2ccccc2n1)C(C)(C)C` [Compound 7], the values for the Ki on XIAP, on c-IAP1 and at cIAP2 were less than 250 nM, less than 25 nM and less than 25 nM, respectively. Moreover, in data set [1], the EC50 is less than 250 nM. Moreover, the “reduction of tumor volume as compared to control” value in the data set with MDA-MB-231 (CD) cells came to 50%.

In the case of `CN[C@@H](C)C(=O)N[C@H](C(=O)N1CCC[C@H]1CN(CCc1ccc(F)cc1)C(=O)c1cn2cc(F)cnc2n1)C(C)(C)C` [Compound 63], the Ki is less than 250 nM at XIAP, less than 25 nM on c-IAP1 and less than 25 nM at cIAP2. Further, the EC50 in data set [1] is less than 50 nM. Moreover, the body weight change result in data set [2] was “slight weight loss”.

A word on the Ki: it is the dissociation constant of the complex between target and ligand, obtained from inhibition or displacement. Read a high Ki as lower affinity. What is called EC50 is the concentration that produces a half-maximal response.

Source of the values: patent publication US9284350B2, “IAP BIR domain binding compounds” (Pharmascience Inc., priority 2010, dated 2016).
